In patent publication US11130974B2, “Hydroxylated fatty acid homopolymer and production method thereof” (KYOTO UNIVERSITY, priority 2017, dated 2021):

Molecular target: T1, hydroxylated fatty acid dehydrogenase (CLA-DH) (Lactiplantibacillus plantarum, UniProt P0DX40)
T1 construct: made in house; host or cells: Escherichia coli (cell-free extract, not purified)
T1 sequence (P0DX40 1-286): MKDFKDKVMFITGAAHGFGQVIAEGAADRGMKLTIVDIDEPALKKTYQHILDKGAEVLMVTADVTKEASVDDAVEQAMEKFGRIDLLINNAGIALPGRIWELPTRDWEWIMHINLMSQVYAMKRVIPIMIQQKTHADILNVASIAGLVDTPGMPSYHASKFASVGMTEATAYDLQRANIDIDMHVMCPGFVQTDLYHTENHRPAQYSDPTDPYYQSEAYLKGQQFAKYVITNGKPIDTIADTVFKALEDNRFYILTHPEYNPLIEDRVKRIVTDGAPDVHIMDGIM
Experiment: Comparison of oxidation stability: oxidation reaction with NAD+ in the presence of hydroxylated fatty acid dehydrogenase (CLA-DH), NADH measured at 340 nm
Type: biochemical
Conditions: 0.143 mg/mL substrate (0.48 mM HYA), 4 mM NAD+, CLA-DH-expressing Escherichia coli cell-free extract, 37° C., about 6 min
Method: The oxidation stability was compared between the reaction extract (homopolymer mixture) obtained in Example 1 and HYA. The oxidation reaction was performed using NAD^+ as an electron receptor in the presence of hydroxylated fatty acid dehydrogenase (CLA-DH) (S. Kishino et al., Polyunsaturated fatty acid saturation by gut lactic acid bacteria affecting host lipid composition. Proc. Natl. Acad. Sci. USA, 110(44), 17808-17813, 2013).
The reaction mixture (3 mL) contained CLA-DH-expressing Escherichia coli cell-free extract (150 μL, derived from 50 mg Escherichia coli wet cells) as hydroxylated fatty acid dehydrogenase, 4 mM NAD^+, 150 μL of ethanol, and 0.48 mM (0.143 mg/mL) HYA or equal amount (0.143 mg/mL) of a homopolymer mixture as a substrate, and the reaction was started by the addition of hydroxylated fatty acid dehydrogenase and performed at 37° C. for about 6 min. […] The progress of oxidation was quantified by measuring the change in absorbance at 340 nm of NADH amount produced by the oxidation of the substrate (the molecular absorption coefficient of NADH was 6.3×10^3 L·mol^−1 cm^−1).

Compound: CCCCC/C=C\CC(O)CCCCCCCCC(=O)O (stereo not drawn) [HYA, 10-hydroxy-cis-12-octadecenoic acid]
- oxidation rate: 2.9 µM/min
